Calls of active or inactive are those of the source. The rule behind the calls is not given here.
Test: reduced viability of parasite-Hsp90 expressing yeast – ATP luminescence, 48 h, cherry-picked samples, anti-malarial Hsp90 inhibitor project, dose response (AID 540268);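 for activity change, negative = inhibition: 0% = neutral control wells and -100% = positive control wells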
Conditions: yeast expressing the parasite Hsp90, ATP luminescence; for activity change, negative = inhibition: at 26 µM (top of the series)

CCCOC(=O)c1ccc(Oc2cn[nH]c2-c2ccc(OCC)cc2O)cc1
AC50: < 0.195 µM

COc1ccccc1C(=O)NNC(=S)NC(=O)c1cccs1
AC50: 6.92 µM

Cc1nnc(C)n1/N=C/c1cc(Br)cc(Br)c1O
AC50: 4.35 µM

CCCC(=O)NC(c1cccs1)c1cc(Cl)c2cccnc2c1O (centres undefined)
AC50: 1.58 µM

Oc1c(Br)cc(Br)c(/C=N/n2c(-c3ccccc3)n[nH]c2=S)c1Br
AC50: 10.4 µM

O=C(/C=C/c1ccccc1[N+](=O)[O-])c1ccccc1Br
AC50: 3.2 µM

N#C/C(=C\c1cccc(Oc2ccccc2)c1)C(=O)N1CCOCC1
AC50: 8.86 µM

O=[N+]([O-])c1ccc(N=Nc2c(Cl)cc(O)cc2Cl)cc1
AC50: 0.401 µM

O=C(/C=C/c1ccc(F)cc1)NC(=S)NNC(=O)c1cnccn1
AC50: 2.71 µM

Cc1ccc(-c2cc(-c3ccc(F)cc3)c(C#N)c(N)n2)o1
activity change, negative = inhibition: 19.7% (inactive)

COc1cccc2c1C(=O)c1c(O)c3c(c(O)c1C2=O)CC(O)(C(=O)CO)CC3OC1CC(N(C)C)C(O)C(C)O1 (centres undefined)
AC50: 1.09 µM

Cc1ccc(N2C(=O)C3C4C=CC(CNC(=S)N5CCN(c6ccccn6)CC5)(O4)C3C2=O)cc1 (centres undefined)
AC50: 8.31 µM

O=C(C1CCN(C2CC(=O)N(c3cccc(Cl)c3)C2=O)CC1)N1CCCC1 (centres undefined)
AC50: 3.94 µM

Cc1c(Cl)sn(-c2ccc(Cl)cc2)c1=O
AC50: < 0.195 µM

CC(=NNC(=S)N1CCCCCC1)c1ccccn1
AC50: 3.89 µM

COc1ccc(NC(=O)/C(Cl)=C(/Cl)S(=O)Cc2ccc(Cl)cc2)cn1 (centres undefined)
AC50: 0.837 µM

COc1ccc(NC(=O)/C(Cl)=C(/Cl)S(=O)Cc2ccccc2)cn1 (centres undefined)
AC50: 2.54 µM

CC1=NNC(=O)/C1=C\c1cn(-c2ccccc2)nc1-c1cccs1
AC50: 4.87 µM

O=C1/C(=C\c2ccc(Cl)c(Cl)c2)CN(C(=O)CCN2CCOCC2)C/C1=C/c1ccc(Cl)c(Cl)c1
AC50: 3.5 µM

Cc1ccc(C(c2cc(Cl)c3cccnc3c2O)N2CCN(C)CC2)cc1 (centres undefined)
AC50: 0.507 µM

COc1ccc(C2=CC3=C(Br)C(=O)C(C)(OC(=O)c4ccco4)C(=O)C3=CO2)cc1 (centres undefined)
AC50: 3 µM

COc1cc2cc(C(=O)N3CC(COS(C)(=O)=O)c4ccc(O)cc43)[nH]c2c(OC)c1OC (centres undefined)
AC50: 1.55 µM

CC(C)(C)c1cc(C(c2cccnc2)N2CCN(CCO)CC2)cc(C(C)(C)C)c1O (centres undefined)
AC50: 25 µM

O=C(c1ccc(-c2ccccc2)cc1)C1CCCN(C(=O)c2cncs2)C1 (centres undefined)
AC50: 2.72 µM

CC(=O)NC(c1ccc(C(C)C)cc1)c1ccc2cccnc2c1O (centres undefined)
AC50: 2.24 µM

CCCCCCCCCCCCCCCC(=O)OC(CC(=O)O)C[N+](C)(C)C (centres undefined)
AC50: 1.23 µM

CC(C)(C)c1cc(-c2nc(N)nc(N)n2)c(O)c(C(C)(C)C)c1
AC50: 15.1 µM

CCCCCCC(Cl)(Cn1ccnc1)c1ccccc1 (centres undefined)
AC50: 8.41 µM

CC(=O)Nc1ccc(Nc2cc(C(C)C)nc3c(-c4ccccc4)c(C)nn23)cc1
AC50: 3.68 µM

CCOc1ccc(NCc2cc3c(C(C)(C)C)nn(-c4ccccc4)c3[nH]c2=O)cc1
AC50: 18.1 µM

C=CCn1c(O)c(N=Nc2ccccc2O)c2ccccc21
AC50: 8.15 µM

c1cnc2c(c1)ccc1cccnc12
AC50: 6.61 µM

Cc1ccc(NC(=O)c2nc(S(=O)(=O)Cc3ccccc3)ncc2Cl)cc1
AC50: 4.12 µM

Cc1cc(N=Nc2ccccc2C(=O)O)c(C)c(C)c1O
AC50: 4.79 µM

O=c1cc(-c2ccc(C3CCCCC3)cc2)[nH][nH]1
AC50: 7.7 µM

CC(C)OC(=O)c1ccc(NCc2cc(O)ccc2O)cc1
AC50: 6.94 µM

Clc1ccc(N=c2ssnc2Cl)nc1
AC50: 3.19 µM

CC1(C)C=Cc2c(ccc3c2OC[C@H](c2ccc(O)cc2O)C3)O1
AC50: 4.6 µM

Cc1cc(C)cc(N=Cc2ccc([N+](=O)[O-])s2)c1
AC50: 3.94 µM

COc1ccccc1OCc1cc(C(=O)N2CCN(C)C(c3ccccc3)C2)no1 (centres undefined)
AC50: 3.05 µM

Cc1cccc(N2C(=O)/C(=C\c3ccc(OC(F)F)cc3)c3ccccc3C2=O)c1
AC50: 4.64 µM

O=C(Nc1ccccc1)c1nnsc1S(=O)(=O)c1ccc(Cl)cc1
AC50: 0.435 µM

COc1cccc(/C=N/Nc2ncnc3scc(-c4ccccc4)c23)c1O
AC50: 15.3 µM

O=[N+]([O-])c1ccc(O)c(C2CCCCC2)c1
AC50: 4.84 µM

Cc1cc(N2C(=O)C=CC2=O)c([N+](=O)[O-])cc1C
AC50: 1.18 µM

CCOC(=O)c1ccc(N2C(=O)CC(N3CCC(C(=O)OCC)CC3)C2=O)cc1 (centres undefined)
AC50: < 0.195 µM

N/C(Cc1ccc(Cl)c(Cl)c1)=N\OC(=O)c1cccs1
AC50: 2.22 µM

Nc1ncnc2c1ncn2C1OC(COP(=O)(O)O)C(O)C1O (centres undefined)
AC50: 2.27 µM

Cc1cc(C)c(S(=O)(=O)N2CCC(C(=O)NCc3ccc(Cl)cc3Cl)CC2)c(C)c1
AC50: 0.835 µM

Clc1ccc(N=c2ssnc2Cl)cc1
AC50: 2.69 µM

CCOc1ccc(C(Nc2cccnc2)c2cc(Cl)c3cccnc3c2O)cc1 (centres undefined)
AC50: 1.5 µM

CCCCCCCCCCCCCCCC[N+](C)(C)C
AC50: 8.6 µM

O=C1C=CC(=O)N1c1ccc(O)cc1
AC50: 1.44 µM

COC(=O)c1cc(=O)n(-c2ccc(F)cc2)c(=Nc2ccc(F)cc2)s1
AC50: 13.9 µM

O=C(C=Cc1ccccn1)c1ccccc1O
AC50: 3 µM

Cc1nn(-c2nc3ccccc3[nH]2)c(=O)c2ccccc12
AC50: 1.84 µM

COc1ccc(N2CCN(c3c(S(=O)(=O)c4ccccc4)cnc4ccc(OC)cc34)CC2)cc1
AC50: 3.9 µM

O=C(CCSc1nnc(-c2ccncc2)o1)Nc1ccc(Cl)cc1
AC50: 2.87 µM

Cc1onc(-c2ccccc2)c1C(=O)NC(=S)NNC(=O)c1ccccc1O
AC50: 2.24 µM

COc1ccc(C(C#N)=C2C=CC(=NO)C=C2)cc1
AC50: 4.56 µM

C(C#CCCCCCCCCC[n+]1ccccc1)#CCCCCCCCCC[n+]1ccccc1
AC50: 4.06 µM

CCOCCCNC1=C(Cl)C(=O)c2ccccc2C1=O
AC50: 4.93 µM

CCN1CCN(C(c2ccc(C(F)(F)F)cc2)c2ccc3cccnc3c2O)CC1 (centres undefined)
AC50: 1.54 µM

O=C1C=CC(=Nc2ccc(F)cc2)O1
AC50: 1.24 µM

Cc1ccc(CSc2nc3ccsc3c(=O)n2Cc2ccccn2)cc1
AC50: 9.62 µM

O=C(Nc1nc(-c2ccccn2)cs1)c1ncc(Cl)c(Cl)c1Cl
AC50: 2.9 µM

Cc1ccc(S(=O)(=O)N(C(=O)c2ccncc2)c2ccc(OC(=O)c3ccncc3)cc2)cc1
AC50: 0.863 µM

O=C1Nc2ccc(Br)cc2/C1=C/C1CC=CCC1 (centres undefined)
AC50: 8.99 µM

CCOC(=O)C1=Nc2ccccc2C1=[N+]=[N-]
AC50: 0.532 µM

Oc1cc(Cl)ccc1Oc1ccc(Cl)cc1Cl
AC50: 7.54 µM

Cc1ccc(C(=O)Sc2cccccc2=O)cc1
AC50: 6.77 µM

Cc1cccc2cc(CN(Cc3nnnn3C3CCCCC3)C3CCCC3)c3nnnn3c12
AC50: 2.2 µM

Clc1ccccc1C(c1ccccc1)(c1ccccc1)n1ccnc1
AC50: < 0.195 µM

Cc1ccc(-c2onc3ccc(C(=O)/C=C/N(C)C)cc23)cc1
AC50: 5.98 µM

CCCCCCCCCCCCCCCC[n+]1ccc(C(N)=O)cc1
AC50: 7.6 µM

CCCNC(=O)c1nnsc1S(=O)c1ccc(Cl)cc1 (centres undefined)
AC50: 1.53 µM

O=C(NCc1ccc2c(c1)OCO2)c1ccc(Br)cc1
AC50: 4.46 µM

O=C(CCN1C(=O)/C(=C/c2cccs2)SC1=S)NC1=NCCS1
activity change, negative = inhibition: 60.4% (inactive)

CC(C)c1ccc(-c2cc(C(=O)N3N=C(C(F)F)CC3(O)C(F)F)c3ccccc3n2)cc1 (centres undefined)
AC50: 4.24 µM

Cc1ccc(C(=O)N2CCN(c3ccccc3Cl)CC2)cc1[N+](=O)[O-]
AC50: 4.09 µM

[O-][n+]1cccc2c(Br)cc(Br)c(O)c21
AC50: 3.55 µM

CCCC1COC(Cn2cncn2)(c2ccc(Cl)cc2Cl)O1 (centres undefined)
AC50: < 0.195 µM

O=C(OCC(=O)c1c[nH]c2ccccc12)c1ccc([N+](=O)[O-])s1
AC50: 4.09 µM

Cc1ccc(N=Nc2ccc(O)cc2)c(Br)c1
AC50: 8.33 µM

Reference: PubChem BioAssay AID540268 (Broad Institute, 2011)
